Among the data in ChEMBL document CHEMBL1833905, “Design, synthesis and primary activity assay of tripeptidomimetics as histone deacetylase inhibitors with linear linker and branched cap group” (Eur J Med Chem, 2011) are IC50 values, retold here.

In one assay the target is T1, Histone deacetylase 8 (Homo sapiens, UniProt Q9BY41).
T1 sequence (Q9BY41 whole entry): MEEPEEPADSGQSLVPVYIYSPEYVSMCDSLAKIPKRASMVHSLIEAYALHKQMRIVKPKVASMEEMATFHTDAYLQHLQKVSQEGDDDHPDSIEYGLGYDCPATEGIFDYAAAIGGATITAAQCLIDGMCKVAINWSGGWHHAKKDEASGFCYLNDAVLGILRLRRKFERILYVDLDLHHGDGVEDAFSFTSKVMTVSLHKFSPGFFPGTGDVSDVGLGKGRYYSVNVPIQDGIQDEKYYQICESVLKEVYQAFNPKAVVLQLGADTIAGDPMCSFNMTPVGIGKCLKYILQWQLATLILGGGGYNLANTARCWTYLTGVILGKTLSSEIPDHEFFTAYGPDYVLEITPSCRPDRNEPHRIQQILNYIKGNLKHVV
The experiment in a line: Inhibition of human HDAC8 expressed in Escherichia coli using Boc-Lys (acetyl)-AMC as substrate treated for 5 mins before substrate addition measured after 30 mins by fluorescence assay.

The next assay addresses Histone deacetylase 1 (Homo sapiens, UniProt Q13547). The experiment in a line: Inhibition of human HDAC1 expressed in Escherichia coli using fluorogenic substrate treated for 5 mins before substrate addition measured after 30 mins by fluorescence assay.
Another assay has as its system MDA-MB-231. The experiment in a line: Antiproliferative activity against human MDA-MB-231 cells after 48 hrs by MTT assay. Type of assay: functional, cell-based. The conditions noted are these: MDA-MB-231, 48 h.
A further assay relates to PC-3. The experiment in a line: cells. Conditions: Homo sapiens, PC-3, 48 h.
A further assay concerns MCF7. Description: Antiproliferative activity against human MCF7 cells after 48 hrs by MTT assay. Type of assay: functional, cell-based. The conditions noted are these: MCF7, 48 h. On the technique in general: Tetrazolium dyes change colour on reduction, which living cells bring about.

SMILES strings stand for the structures. Bounds are passed on as bounds.

Sequence of Histone deacetylase 1 (Q13547 whole entry): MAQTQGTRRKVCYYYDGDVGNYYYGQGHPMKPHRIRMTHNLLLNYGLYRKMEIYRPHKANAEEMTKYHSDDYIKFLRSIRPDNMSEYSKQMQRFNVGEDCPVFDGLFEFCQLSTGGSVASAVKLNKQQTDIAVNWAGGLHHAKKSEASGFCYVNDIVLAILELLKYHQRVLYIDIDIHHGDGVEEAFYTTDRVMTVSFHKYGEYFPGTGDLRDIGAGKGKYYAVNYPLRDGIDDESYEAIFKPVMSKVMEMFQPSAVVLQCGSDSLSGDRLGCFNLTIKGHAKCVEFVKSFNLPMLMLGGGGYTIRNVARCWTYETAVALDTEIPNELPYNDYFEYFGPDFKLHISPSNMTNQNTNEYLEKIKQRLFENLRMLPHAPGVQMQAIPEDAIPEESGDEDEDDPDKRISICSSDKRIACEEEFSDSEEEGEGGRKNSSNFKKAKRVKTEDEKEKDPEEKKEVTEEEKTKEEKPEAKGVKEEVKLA

On to `CC(C)(C)OC(=O)NCCCC(=O)N1CC2(C[C@H]1C(=O)NCCCCCC(=O)NO)SCCS2`, for which the IC50 (as a rule, the concentration that gives 50% inhibition) at Histone deacetylase 8 came out at 960 nM. This lies in the sub-micromolar range.

As to `O=C(CCCCCNC(=O)[C@@H]1CC2(CN1)SCCS2)NO`, at Histone deacetylase 8, the midpoint of inhibition, the IC50, lay at 2590 nM.

In the case of `NCCC(=O)N1CC2(C[C@H]1C(=O)NCCCCCC(=O)NO)SCCS2`, the IC50 at Histone deacetylase 8 was found to be 1930 nM.

As for `CC(C)C[C@H](NC(=O)OC(C)(C)C)C(=O)N1CC2(C[C@H]1C(=O)NCCCCCC(=O)NO)SCCS2`, the IC50 on Histone deacetylase 1 is 680 nM; in the assay with MDA-MB-231, 3500 nM; in the assay with PC-3, 4300 nM; with MCF7 it was 3510 nM.

Turning to `CC(C)(C)OC(=O)N[C@@H](Cc1ccccc1)C(=O)N1CC2(C[C@H]1C(=O)NCCCCCC(=O)NO)SCCS2`, the half-inhibitory concentration (IC50) was 35 nM on Histone deacetylase 8; 980 nM against Histone deacetylase 1; 2790 nM with MDA-MB-231; 12700 nM with PC-3; 7780 nM in the assay with MCF7.

Regarding `N[C@@H](Cc1ccccc1)C(=O)N1CC2(C[C@H]1C(=O)NCCCCCC(=O)NO)SCCS2`, on Histone deacetylase 8, the IC50 was 840 nM.

With `CC(C)(C)OC(=O)N[C@@H](Cc1ccc(O)cc1)C(=O)N1CC2(C[C@H]1C(=O)NCCCCCC(=O)NO)SCCS2`, the IC50 against Histone deacetylase 8 came to 21 nM; at Histone deacetylase 1, 450 nM; in the assay on MDA-MB-231 it was 30500 nM; in the assay on PC-3, 24700 nM; with MCF7 it was 21600 nM.

With `N[C@@H](Cc1ccc(O)cc1)C(=O)N1CC2(C[C@H]1C(=O)NCCCCCC(=O)NO)SCCS2`, the IC50 on Histone deacetylase 8 is 490 nM; at Histone deacetylase 1 it was 450 nM; in the assay with MDA-MB-231, greater than 100000 nM; in the assay with PC-3, greater than 100000 nM; in the assay on MCF7, greater than 100000 nM.

On to `CC(C)(C)OC(=O)N[C@@H](Cc1c[nH]c2ccccc12)C(=O)N1CC2(C[C@H]1C(=O)NCCCCCC(=O)NO)SCCS2`, for which the IC50 is 140 nM against Histone deacetylase 8; 750 nM against Histone deacetylase 1; 5830 nM with MDA-MB-231; 13700 nM in the assay with PC-3; 9160 nM in the assay on MCF7.

Consider `N[C@@H](Cc1c[nH]c2ccccc12)C(=O)N1CC2(C[C@H]1C(=O)NCCCCCC(=O)NO)SCCS2`, for which the IC50 on Histone deacetylase 8 is 690 nM. In other words, the sub-micromolar range.

Regarding `CC(C)(C)OC(=O)NCCCC[C@H](NC(=O)OC(C)(C)C)C(=O)N1CC2(C[C@H]1C(=O)NCCCCCC(=O)NO)SCCS2`, the IC50 against Histone deacetylase 8 is 350 nM; at Histone deacetylase 1, 980 nM; with MDA-MB-231, 12800 nM; in the assay on PC-3, 34600 nM; in the assay with MCF7 it was 42500 nM.

In turn, `NCCCC[C@H](N)C(=O)N1CC2(C[C@H]1C(=O)NCCCCCC(=O)NO)SCCS2` registered an IC50 against Histone deacetylase 8 of 4770 nM.

In turn, `O=C(CCCCCCC(=O)Nc1ccccc1)NO` [VORINOSTAT] displayed an IC50 in the assay with PC-3 of 1980 nM.
